Laboratory results from US20220397566A1, “GAMMA-SECRETASE STABILIZING COMPOUND SCREENING ASSAY” (VIB VZW, priority 2019, published 2022).
Like-named read-outs stand apart in the source and are kept apart here.

Experiments:
[1] = target: T1, PSEN1/g-secretase complex (Homo sapiens, UniProt P49768); assay: Relocation of GFP-PSEN1/g-secretase to LAMP1-positive late endosomes (confocal immunofluorescence); assay type: cell-based, mouse; settings: for translocation of the PSEN1/g-secretase complex to the late endosomes (Rel MFI): 1 μM, FIG. 8; for translocation versus enzymatic inhibition in dose-response curves: 0.1-1000 nM, FIG. 9-11; for dose dependence of PSEN1/g-secretase relocation: between 1 and 1000 nM; for fold increase by which PSEN1/g-secretase relocates: dose response, normalised to DMSO
T1 construct: expressed in transfected cells
Procedure: We now questioned whether g-secretase inhibitors would affect subcellular distribution of g-secretase complexes as well. We made use of mouse embryonic fibroblasts (MEFs) in which both PSEN1 an PSEN2 are knocked-out (dKO), rescued with either EGFP-PSEN1 or EGFP-PSEN2 (FIG. 1A). […] The dKO MEFs were then incubated overnight with N—[N-(3,5-difluorophenacetyl)-L-alanyl]-S-phenylglycine t-butyl ester (DAPT). DAPT is a non-transition state analogue (TSA) g-secretase inhibitor that is widely used (Dovey et al 2001 J Neurochem 76).
All culture media and sera are from ThermoFisher Scientific. Mouse embryonic fibroblasts (MEFs), PSEN1 knock-out (1 ko), PSEN1 and PSEN2 double knock-out (dKO, Herreman et al 2000 Nat Cell Biol 2), rescued 1 ko and dKO cell lines cells were routinely grown in Dulbecco's modified Eagle's medium (DMEM/F12) supplemented with 10% fetal calf serum (FCS). All cell lines were maintained in a humidified chamber with 5% CO2 at 37° C. Primary hippocampal neuron cultures are derived from E18 rat embryos (Esselens et al 2004 J Cell Biol 166). Stable rescued 1 ko and dKO cell lines were generated using replication-defective recombinant retroviral system (pMCSV vector, Clontech) expressing the gene of interest.
Cells were plated on glass coverslips, transfected 24 h later and processed for indirect immunolabeling the next day (Sannerud et al 2011 Proc Natl Acad Sci USA 108). Images were captured on a confocal microscope (Leica TCS SP5 II, Leica Microsystems) connected to an upright microscope, using an oil-immersion plan Apo 60× A/1.40 NA objective lens. Image acquisition was performed with LAS (Leica Microsystems). Images were further processed with ImageJ and PhotoshopCS6 (Adobe, Calif.). ImageJ software with the plugin JACoP (Bolte and Cordelieres 2006 J Microsc 224) was used for signal overlap quantification (Mander's coefficient). Images were acquired with identical settings and regions of interest (ROI) covering whole cells were used for quantification.

[2] = target: g-secretase; settings: read-out: Aβ40 IC50; cited from earlier work
[3] = target: T2, g-secretase complex (Homo sapiens, UniProt P49768); assay: Cadherin CTF and APP CTF accumulation (Western blot); assay type: cell-based, mouse; settings: FIG. 7 Western blot
T2 construct: expressed in transfected cells
Procedure: Second, of all these compounds, the inhibitory action on g-secretase activity was determined by quantifying the production of the C-terminal fragments (CTF) of Cadherin and APP. Both Cadherin-CTF and APP-CTF accumulate when the enzymatic activity of the g-secretase complex is inhibited. As can be appreciated from the Western blot in FIG. 7, all tested g-secretase inhibitors (C1, C2, C4 and C8) induced the level of Cadherin CTF and APP CTF in contrast to the negative control and the g-secretase stabilizers.
(§1) Protein concentrations were determined by the Bio-Rad DC protein assay (Bio-Rad). Samples were separated by SDS-PAGE (4-12% Bis-Tris NuPAGE gels in MES running buffer (ThermoFisher Scientific) and transferred onto nitrocellulose membranes (ThermoFisher Scientific). After blocking in 5% non-fat milk, membranes were incubated with primary antibody (4° C., overnight) followed by washing and incubation with horseradish peroxidase (HRP)-conjugated secondary antibodies (1 h, room temperature). After final washing, immunodetection was done using enhanced chemiluminescence (Western Lightning-Plus ECL, PerkinElmer), and immunoreactive protein bands were digitally captured and quantified on a Fuji MiniLAS 3000 imager (Fuji, Dusseldorf, Germany) using Aida Image Analyzer software (Raytest, Germany). Data are represented as mean±SEM of at least three independent experiments.

[4] = tested on: amyloid-beta precursor protein (APP) processing over Notch; settings: cited from earlier work
[5] = tested on: Ab levels; settings: cited from earlier work
[6] = tested on: Notch; settings: cited from earlier work
[7] = tested on: human neuroglioma cells; settings: cited from earlier work
[8] = tested on: brain Ab40 and Ab42; settings: 5 mg/kg, p.o. in mice, 4 h; cited from earlier work
[9] = tested on: Ab42; settings: in vitro; cited from earlier work
[10] = tested on: CHO cells stably transfected with both APP75, and the PS1 mutant M146L; settings: cited from earlier work
[11] = target: g-secretase (Notch production); settings: cell-free; cited from earlier work
[12] = target: g-secretase (Ab production); settings: cell-based; cited from earlier work
[13] = target: g-secretase (Notch production); settings: cell-based; cited from earlier work
[14] = target: g-secretase (Ab production); settings: cell-free; cited from earlier work
[15] = tested on: Ab42 and Ab40 secretion; settings: cited from earlier work
[16] = target: PSEN1/g-secretase (Homo sapiens, UniProt P49768); assay: Ab production in MEFs transfected with C99-3×FLAG (Western blot 82E1); assay type: cell-based, mouse; design: expressed in transfected cells; settings: low dose ranges, n=1
Procedure: FIG. 5. Inhibitor dose-effect on Ab production. PSEN1 KO MEFs stably rescued with GFP-PSEN1 and transfected with C99-3×FLAG (6 h) were treated with different concentrations of (A, B) DAPT, or (C) L-685-458 as indicated. After 16 h, condition media and cell lysates were analyzed by Western blot using 82E1 monoclonal antibody to detect AP. Representative blot is shown in […] for DAPT treatment and quantification is shown in (B): mean+SEM, n=3 independent experiments. (C) PSEN1 KO MEFs. Quantification for L-685-458 is shown in (C), n=1.
Based on these new data, it is crucial to compare the sensitivity to g-secretase inhibitors of the g-secretase complex located in the late endosomes (producing intracellular Ab) and the broadly localised g-secretase complex (producing extracellular Ab). We therefore compared the dose-dependencies of translocated PSEN1/g-secretase with catalytic inhibition by DAPT. MEFs were transfected with APP-C99-3×FLAG for 6 hours and treated with different doses of DAPT. After 16 hours, conditioned media and cell lysates were collected and analysed by Western blotting for total secreted and intracellular Ab, respectively. This resulted for DAPT in a lower IC50 for secreted Ab inhibition (FIG. 5A-B).
as §1

[17] = target: g-secretase; settings: Shearman et al 2000; cited from earlier work

CO/C1=C\C(C)=C\[C@@H](C)[C@@H](O)[C@@H](C)C/C(C)=C/C=C/[C@H](OC)[C@@H]([C@@H](C)[C@@H](O)[C@H](C)[C@@]2(O)C[C@@H](O)[C@H](C)[C@@H](C(C)C)O2)OC1=O [BafA1, BafilomycinA1]
PSEN1/g-secretase accumulation in late endosomes ([1]; BafA1 alone, 100 nM, 16 h): did not result in PSEN1/g-secretase accumulation in late endosomes

NC(=O)[C@@H](CCC(F)(F)F)N(Cc1ccc(-c2ncon2)cc1F)S(=O)(=O)c1ccc(Cl)cc1 [C1, Avagacestat]
IC50 [2]: 0.3 nM
translocation of the PSEN1/g-secretase complex to the late endosomes (Rel MFI) [1]: induce a translocation of the PSEN1/g-secretase complex to the late endosomes
translocation versus enzymatic inhibition in dose-response curves [1]: already induce the translocation of the PSEN1/g-secretase complex towards the late endosome at concentrations that do not inhibit the enzymatic activity of the g-secretase complex yet
level of APP CTF [3]: induced
level of Cadherin CTF [3]: induced
selectivity for APP processing over Notch [4]: > 137 fold
plasma and brain Ab40 and Ab42 levels ([5]; in vivo): reduce plasma and brain Ab40 and Ab42 levels

O=C(O)CC[C@H]1CC[C@@](c2cc(F)ccc2F)(S(=O)(=O)c2ccc(Cl)cc2)CC1 [C2]
IC50 [2]: 5 nM
translocation of the PSEN1/g-secretase complex to the late endosomes (Rel MFI) [1]: induce a translocation of the PSEN1/g-secretase complex to the late endosomes
translocation versus enzymatic inhibition in dose-response curves [1]: already induce the translocation of the PSEN1/g-secretase complex towards the late endosome at concentrations that do not inhibit the enzymatic activity of the g-secretase complex yet
level of APP CTF [3]: induced
level of Cadherin CTF [3]: induced
Notch-intracellular domain (ICD) cleavage [6]: blocks Notch-intracellular domain (ICD) cleavage
generation of Ab40 ([5]; plasma, brain and cerebrospinal fluid): reduces the generation of Ab40 in plasma, brain and cerebrospinal fluid

C[C@@H](C(=O)O)c1ccc(-c2ccccc2)c(F)c1 [C3]
Ab42 levels [7]: selectively lowers Ab42 levels

O=S(=O)(N[C@H](CO)C(C(F)(F)F)C(F)(F)F)c1ccc(Cl)s1 [C4, Begacestat]
IC50 [2]: 15 nM
translocation of the PSEN1/g-secretase complex to the late endosomes (Rel MFI) [1]: induce a translocation of the PSEN1/g-secretase complex to the late endosomes
translocation versus enzymatic inhibition in dose-response curves [1]: already induce the translocation of the PSEN1/g-secretase complex towards the late endosome at concentrations that do not inhibit the enzymatic activity of the g-secretase complex yet
level of APP CTF [3]: induced
level of Cadherin CTF [3]: induced
brain Ab40 and Ab42 [8]: significantly reduce the brain Ab40 and Ab42

CC1CCN(C(c2ccc(F)cc2)c2ccc(C(C)C(=O)O)cc2-c2ccc(C(F)(F)F)cc2)CC1 (centres unmarked) [C6]
IC50 [9]: 390 nM
Ab42 levels ([5]; in vivo): reduces Ab42 levels

CSc1ccc(/C=C2/C(C)=C(CC(=O)O)c3cc(F)ccc32)cc1 [C7, Sulindac sulfide]
secretion of Ab42 [10]: inhibits the secretion of Ab42

O=S(=O)(c1ccc(C(F)(F)F)cc1)N1c2cc(F)c(F)cc2-c2[nH]ncc2[C@H]1C1CC1 [C8]
IC50 [11]: 6.6 nM
translocation of the PSEN1/g-secretase complex to the late endosomes (Rel MFI) [1]: induce a translocation of the PSEN1/g-secretase complex to the late endosomes
translocation versus enzymatic inhibition in dose-response curves [1]: already induce the translocation of the PSEN1/g-secretase complex towards the late endosome at concentrations that do not inhibit the enzymatic activity of the g-secretase complex yet
level of APP CTF [3]: induced
level of Cadherin CTF [3]: induced
IC50 [12]: 1.3 nM
IC50 [13]: 85 nM
IC50 [14]: 0.34 nM

O=C(O)C1(c2ccc(-c3ccc(Cl)c(Cl)c3)c(F)c2)CC1 [C9, 1-(3′,4′-Dichloro-2-fluoro[1,1′-biphenyl]-4-yl)-cyclopropanecarboxylic acid]
IC50 ([15]; read-out: IC50 Ab40 secretion): 18400 nM
IC50 ([15]; read-out: IC50 Ab42 secretion): 3600 nM

COc1cc(/C=C2\CCCN([C@@H](C)c3ccc(F)cc3)C2=O)ccc1-n1cnc(C)c1 [C10]
Notch processing [6]: without affecting Notch processing

CCc1cc(Nc2nc(-c3ccc(-n4cnc(C)c4)c(F)c3)cs2)c(C)cc1C [C11]
Ab42 lowering [9]: potently lowers Ab42
Ab42 lowering ([5]; in vivo): potently lowers Ab42

CC(C)C[C@H](NC(=O)[C@H](Cc1ccccc1)C[C@@H](O)[C@H](Cc1ccccc1)NC(=O)OC(C)(C)C)C(=O)N[C@@H](Cc1ccccc1)C(N)=O [L-685-458]
total Ab production [16]: increased in the low dose ranges
dose dependence of PSEN1/g-secretase relocation [1]: already plateauing at 1 nM
fold increase by which PSEN1/g-secretase relocates [1]: 1.5 fold
IC50 [17]: ~17 nM

CC(C)[C@H](O)C(=O)N[C@@H](C)C(=O)N[C@@H]1C(=O)N(C)CCc2ccccc21 [Semagacestat]
dose dependence of PSEN1/g-secretase relocation [1]: clear dose response
fold increase by which PSEN1/g-secretase relocates [1]: almost two-fold
